In patent US20220409580A1, “METHODS OF TREATING CONDITIONS RELATED TO THE S1P1 RECEPTOR” (Arena Pharmaceuticals, Inc., priority 2019, published 2022):

What was measured:
Type in all cases: in vivo, human
[1] = Safety and tolerability in adult subjects, including Phase 1 studies with healthy adult subjects; details: approximately 281 adult subjects at various doses; single doses up to 5 mg, repeated doses up to 4 mg QD
Procedure: (§1) Compound 1, or a pharmaceutically acceptable salt, solvate, or hydrate thereof, is an orally administered, selective, synthetic sphingosine 1-phosphate (S1P) receptor 1, 4, 5 modulator. […] Its safety and tolerability have been evaluated in Phase 1 studies with healthy adult subjects at single doses up to 5 mg and repeated doses up to 4 mg once daily (QD).

UC = experiment: Phase 2 dose-ranging study in UC patients and open-label extension study; details: UC patients
Procedure: as §1

[2] = tested on: circulating B cells, CD4+ TCM, CD4+ TN, Th17, Th2, CD8+ TCM, and CD8+TN cells; experiment: In depth immunophenotyping in healthy subjects (FIG. 3); details: 1 or 2 mg once daily, peaked at Day 7 pre-dose
Procedure: (§2) A single-blind (ie, subject only), placebo-controlled, randomized, fixed-sequence, parallel design study evaluated PK, PD, safety, and tolerability in healthy Japanese and Caucasian male subjects (data reported herein is based on the preliminary clinical study report). A total of 49 subjects were enrolled and received 1 or 2 mg of Compound 1 or placebo once daily for 7 days followed by an additional single dose on Day 15, administered 1 week after a treatment-free period. […] The median percent change from baseline at Day 7 was −23.61% in the Japanese 1 mg group, −25.79% in the Caucasian 1 mg group, −50.00% in the Japanese 2 mg group, and −43.67% in the Caucasian 2 mg group. The median percent change from baseline at Day 15 (pre-dose) was 0.00% in the Japanese 1 mg group, −21.43% in the Caucasian 1 mg group, −6.67% in the Japanese 2 mg group, and −16.23% in the Caucasian 2 mg group. In depth immunophenotyping was performed in healthy subjects.

lymphocyte count = experiment: Single-blind, placebo-controlled, randomized study of PK, PD, safety and tolerability: lymphocyte count
Procedure: as §2

Compound: O=C(O)C[C@H]1CCc2c1[nH]c1ccc(OCc3ccc(C4CCCC4)c(C(F)(F)F)c3)cc21 [Compound 1, (R)-2-(7-(4-cyclopentyl-3-(trifluoromethyl)benzyloxy)-1,2,3,4-tetrahydrocyclopenta[b]indol-3-yl)acetic acid]
- safety and tolerability [1]: safe and well-tolerated
- endoscopic and symptomatic improvements versus placebo (UC; 2 mg QD for 12 weeks): clinically meaningful and statistically significant endoscopic and symptomatic improvements
- beneficial effects in open-label extension study (UC; up to 46 weeks): Sustained beneficial effects
- median number of circulating B cells, CD4+ TCM, CD4+ TN, Th17, Th2, CD8+ TCM, and CD8+TN cells [2]: dose-dependent decrease
- median percent change from baseline in lymphocyte count (lymphocyte count; Day 7, Caucasian 1 mg group, once daily for 7 days, healthy male subjects): −25.79%
- median percent change from baseline in lymphocyte count (lymphocyte count; Day 7, Caucasian 2 mg group, once daily for 7 days, healthy male subjects): −43.67%
- median percent change from baseline in lymphocyte count (lymphocyte count; Day 7, Japanese 1 mg group, once daily for 7 days, healthy male subjects): −23.61%
- median percent change from baseline in lymphocyte count (lymphocyte count; Day 7, Japanese 2 mg group, once daily for 7 days, healthy male subjects): −50.00%
- median percent change from baseline in lymphocyte count (lymphocyte count; Day 15 (pre-dose), after 1 week treatment-free period, Caucasian 1 mg group): −21.43%
- median percent change from baseline in lymphocyte count (lymphocyte count; Day 15 (pre-dose), after 1 week treatment-free period, Caucasian 2 mg group): −16.23%
- median percent change from baseline in lymphocyte count (lymphocyte count; Day 15 (pre-dose), after 1 week treatment-free period, Japanese 1 mg group): 0.00%
- median percent change from baseline in lymphocyte count (lymphocyte count; Day 15 (pre-dose), after 1 week treatment-free period, Japanese 2 mg group): −6.67%
- median lymphocyte count (lymphocyte count; all treatment groups, from first dose (Day 2) through end of repeated dosing period on Day 8): Progressive decreases
- total lymphocyte count, including Th2 T cells (lymphocyte count; healthy subjects, 1 or 2 mg once daily): dose-dependent decrease
